These results are taken from patent US9029386B2, “Pyridine derivatives useful as kinase inhibitors” (YM Biosciences Australia Pty Ltd, priority 2006, dated 2015).

The structures appear in SMILES notation. Where only a bound is given, the exact number is not on record here.

For test [1], the target named is T1, kinase domain of human c-kit (Homo sapiens, UniProt P10721).
T1 construct: from codon M552 to end; made in house; host or cells: Sf9 insect cells (baculovirus)
As to the kind of experiment: Alphascreen protein tyrosine kinase assay, c-KIT. It is filed as biochemical. The procedure: (§1) For screening purposes, compounds were diluted in 96 well plates at a concentration of 20 μM. Plates were warmed at 37° C. for 30 minutes before assay.
The kinase domain of human c-kit from codon M552 to end was cloned into the pDEST-20 expression vector (Invitrogen). The c-kit plasmid was then transformed into competent DH10Bac cells (Gibco), and the recombinant baculovirus produced prepared for transfection into Sf9 insect cells.
(§2) Baculovirus preparations from each of construct were infected into five liters of SF9 cells (Invitrogen) grown in SF-900 medium (Invitrogen) to a cell density of approximately 1−2×10^6 cells/ml. […] Cells were harvested and lysed. Tyrosine kinase domains were purified by affinity chromatography on a glutathione-agarose column (Scientifix Pty. Ltd. catalog #: GSH-200).
(§3) Kinase assays were performed in 384 well Optiplates (Packard) using an Alphascreen Protein Tyrosine Kinase kit. […] Alphascreen phosphotyrosine acceptor beads followed by streptavidin donor beads were added under subdued light. The Alphascreen plates were read on a Packard Fusion Alpha. Inhibitors were added to the assays thirty minutes prior to the addition of ATP. Inhibitors were added in aqueous DMSO, with DMSO concentrations never exceeding 1%.

A further test has as its target T2, PDGFR β tyrosine kinase (Homo sapiens, UniProt P09619).
T2 construct: purchased Upstate Cell Signalling Solutions, CA, USA 14-463
As to the kind of experiment: Alphascreen protein tyrosine kinase assay, PDGFRβ. The class given is biochemical. A general note: Bead proximity is the source of the signal in Alpha formats.

The target of another test is T3, FLT-3 tyrosine kinase (Homo sapiens, UniProt P36888).
T3 construct: purchased Upstate Cell Signalling Solutions, CA, USA 14-500
T3 sequence (P36888 27-993): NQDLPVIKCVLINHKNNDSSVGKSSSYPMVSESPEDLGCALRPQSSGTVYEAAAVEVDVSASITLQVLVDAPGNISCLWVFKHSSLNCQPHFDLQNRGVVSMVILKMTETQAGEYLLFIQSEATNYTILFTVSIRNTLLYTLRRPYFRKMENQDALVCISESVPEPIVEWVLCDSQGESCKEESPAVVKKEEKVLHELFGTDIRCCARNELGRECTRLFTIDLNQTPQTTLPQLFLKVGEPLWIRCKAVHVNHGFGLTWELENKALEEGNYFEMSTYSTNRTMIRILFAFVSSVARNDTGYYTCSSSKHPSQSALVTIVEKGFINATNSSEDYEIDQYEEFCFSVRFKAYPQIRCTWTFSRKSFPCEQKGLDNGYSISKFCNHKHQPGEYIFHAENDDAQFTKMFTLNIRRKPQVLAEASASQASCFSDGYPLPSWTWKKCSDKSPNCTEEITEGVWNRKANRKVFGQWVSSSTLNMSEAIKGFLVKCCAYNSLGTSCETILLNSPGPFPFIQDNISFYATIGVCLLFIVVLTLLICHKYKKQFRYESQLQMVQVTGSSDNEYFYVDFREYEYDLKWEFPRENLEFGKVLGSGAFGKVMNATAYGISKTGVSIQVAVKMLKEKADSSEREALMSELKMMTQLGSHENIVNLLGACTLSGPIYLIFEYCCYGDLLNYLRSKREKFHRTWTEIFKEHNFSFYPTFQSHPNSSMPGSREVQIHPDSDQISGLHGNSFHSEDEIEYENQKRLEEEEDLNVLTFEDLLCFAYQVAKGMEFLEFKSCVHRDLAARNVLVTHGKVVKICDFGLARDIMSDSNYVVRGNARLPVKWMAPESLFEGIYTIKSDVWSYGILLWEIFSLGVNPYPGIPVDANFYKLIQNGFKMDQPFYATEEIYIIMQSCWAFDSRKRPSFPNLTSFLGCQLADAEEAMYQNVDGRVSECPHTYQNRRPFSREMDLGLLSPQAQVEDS
As to the kind of experiment: Alphascreen protein tyrosine kinase assay, FLT-3. It is filed as biochemical. The conditions noted are these: read-out: Flt3.

For test [2], the target named is T4, kinase domain of human CSF1-R (Homo sapiens, UniProt P07333).
T4 construct: from codon I553 to Q961; made in house; host or cells: Sf9 insect cells (baculovirus)
T4 sequence (P07333 553-961): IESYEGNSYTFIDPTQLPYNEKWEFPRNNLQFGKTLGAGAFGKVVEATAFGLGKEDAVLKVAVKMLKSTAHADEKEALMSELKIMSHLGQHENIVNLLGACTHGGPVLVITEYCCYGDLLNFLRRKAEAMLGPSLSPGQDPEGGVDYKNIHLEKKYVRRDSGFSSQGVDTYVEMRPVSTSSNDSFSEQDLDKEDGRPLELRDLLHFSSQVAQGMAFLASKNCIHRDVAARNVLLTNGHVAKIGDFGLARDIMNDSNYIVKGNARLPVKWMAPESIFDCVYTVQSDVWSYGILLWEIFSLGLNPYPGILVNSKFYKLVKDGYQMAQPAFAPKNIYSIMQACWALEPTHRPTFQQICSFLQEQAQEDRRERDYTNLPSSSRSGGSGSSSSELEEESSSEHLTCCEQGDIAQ
As to the kind of experiment: Alphascreen protein tyrosine kinase assay, CSF-1R. It is filed as biochemical. The procedure: as §1
The kinase domain of human CSF1-R from codon I553 to Q961 was cloned into the pDEST-20 expression vector (Invitrogen). The CSF1-R plasmid was then transformed into competent DH10Bac cells (Gibco), and the recombinant baculovirus produced prepared for transfection into Sf9 insect cells.
as §2, §3

The next test concerns the target T5, KDR protein kinase (Homo sapiens, UniProt P35968).
T5 construct: purchased Millipore 14-630M
As to the kind of experiment: Alphascreen protein tyrosine kinase assay, KDR. The class given is biochemical. The procedure: as §1
FLT-3 and PDGFR β tyrosine kinase enzymes were purchased from Upstate Cell Signalling Solutions, CA, USA (flt-3 catalog #: 14-500 and PDGFR β catalog #: 14-463). KDR protein kinase enzyme was purchased from Millipore (catalogue #14-630M).
Kinase assays were performed in 384 well Optiplates (Packard) using an Alphascreen Protein Tyrosine Kinase kit. […] The biotinylated peptides Biotin-[…]-NH2 for c-KIT and PDGFRβ and Biotin-[…]-NH2 for CSF1-R and FLT-3 (final concentration 0.1-3 μM) were used as substrates. Alphascreen phosphotyrosine acceptor beads followed by streptavidin donor beads were added under subdued light. The Alphascreen plates were read on a Packard Fusion Alpha. Inhibitors were added to the assays thirty minutes prior to the addition of ATP. Inhibitors were added in aqueous DMSO, with DMSO concentrations never exceeding 1%.

The subject of a further test is mNFS-60. As to the kind of experiment: Cellular assay (Alamar Blue), mNFS-60 with human M-CSF. The class given is cell-based. Conditions: human M-CSF at 20 ng/ml, 72 hr. As to the method:
(§4) Cells for the assays were prepared by harvesting cells from culture, and then diluting them in the appropriate growth medium to between 40,000 cell/mL and 600,000 cell/mL, depending on the cell line.
(§5) The compounds to be tested were added (104, 10× final concentration) to a flat bottomed 96-well plate. The cellular suspension (80 μL per well) was added, and one hour later the growth factor was added (human M-CSF at 20 ng/ml for mNFS-60, mouse IL-3 at 5 ng/ml for Baf3-WT). The plate was then incubated for 72 hr at 37° C., 5% CO2. Alamar Blue (10^4 per well) was added and the plates returned to the incubator for a further 4-8 hours.
(§6) The plates were then read using a fluorescence plate reader at excitation 544 nm and emission 590 nm.
(In general: Resazurin is reduced to fluorescent resorufin, in cell work by metabolically active cells.)

For another test, the system named is Baf3-WT. As to the kind of experiment: Cellular assay (Alamar Blue), Baf3-WT with mouse IL-3. It is filed as cell-based. Conditions: mouse IL-3 at 5 ng/ml, 72 hr. As to the method:
as §4, §5, §6

T5 sequence (P35968 20-1356): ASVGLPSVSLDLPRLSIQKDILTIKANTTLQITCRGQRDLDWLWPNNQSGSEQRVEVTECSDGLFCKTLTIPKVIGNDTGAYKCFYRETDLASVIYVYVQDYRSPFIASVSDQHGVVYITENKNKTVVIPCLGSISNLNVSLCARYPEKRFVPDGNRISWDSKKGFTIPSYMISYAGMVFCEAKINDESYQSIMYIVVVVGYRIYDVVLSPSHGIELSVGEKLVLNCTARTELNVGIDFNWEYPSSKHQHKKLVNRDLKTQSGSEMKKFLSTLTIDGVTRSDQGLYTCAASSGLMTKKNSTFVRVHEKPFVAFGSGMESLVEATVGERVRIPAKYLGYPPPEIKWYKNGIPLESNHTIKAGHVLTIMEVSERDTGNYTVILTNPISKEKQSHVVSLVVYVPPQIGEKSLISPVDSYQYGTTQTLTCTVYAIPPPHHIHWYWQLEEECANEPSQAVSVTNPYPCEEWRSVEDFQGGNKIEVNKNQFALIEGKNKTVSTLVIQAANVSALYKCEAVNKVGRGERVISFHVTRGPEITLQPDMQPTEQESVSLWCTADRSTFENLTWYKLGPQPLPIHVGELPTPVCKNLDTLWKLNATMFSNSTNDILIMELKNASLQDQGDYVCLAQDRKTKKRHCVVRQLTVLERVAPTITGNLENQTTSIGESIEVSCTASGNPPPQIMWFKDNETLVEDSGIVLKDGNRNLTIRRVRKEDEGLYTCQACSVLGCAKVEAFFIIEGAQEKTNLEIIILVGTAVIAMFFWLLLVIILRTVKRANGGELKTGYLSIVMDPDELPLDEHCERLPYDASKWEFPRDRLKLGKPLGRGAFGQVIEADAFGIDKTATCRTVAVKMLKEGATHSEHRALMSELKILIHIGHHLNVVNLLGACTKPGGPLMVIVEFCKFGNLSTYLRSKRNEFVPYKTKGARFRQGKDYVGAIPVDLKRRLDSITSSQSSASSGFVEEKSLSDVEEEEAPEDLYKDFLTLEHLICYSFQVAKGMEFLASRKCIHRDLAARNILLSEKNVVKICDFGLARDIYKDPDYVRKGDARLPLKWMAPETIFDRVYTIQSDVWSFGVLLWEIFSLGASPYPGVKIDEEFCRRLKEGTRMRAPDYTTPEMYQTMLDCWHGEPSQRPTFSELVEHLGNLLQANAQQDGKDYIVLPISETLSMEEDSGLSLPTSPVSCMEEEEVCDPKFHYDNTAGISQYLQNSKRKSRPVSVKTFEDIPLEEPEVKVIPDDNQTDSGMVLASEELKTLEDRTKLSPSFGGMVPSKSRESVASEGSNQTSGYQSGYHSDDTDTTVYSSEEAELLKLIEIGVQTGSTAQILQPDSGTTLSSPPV
T2 sequence (P09619 33-1106): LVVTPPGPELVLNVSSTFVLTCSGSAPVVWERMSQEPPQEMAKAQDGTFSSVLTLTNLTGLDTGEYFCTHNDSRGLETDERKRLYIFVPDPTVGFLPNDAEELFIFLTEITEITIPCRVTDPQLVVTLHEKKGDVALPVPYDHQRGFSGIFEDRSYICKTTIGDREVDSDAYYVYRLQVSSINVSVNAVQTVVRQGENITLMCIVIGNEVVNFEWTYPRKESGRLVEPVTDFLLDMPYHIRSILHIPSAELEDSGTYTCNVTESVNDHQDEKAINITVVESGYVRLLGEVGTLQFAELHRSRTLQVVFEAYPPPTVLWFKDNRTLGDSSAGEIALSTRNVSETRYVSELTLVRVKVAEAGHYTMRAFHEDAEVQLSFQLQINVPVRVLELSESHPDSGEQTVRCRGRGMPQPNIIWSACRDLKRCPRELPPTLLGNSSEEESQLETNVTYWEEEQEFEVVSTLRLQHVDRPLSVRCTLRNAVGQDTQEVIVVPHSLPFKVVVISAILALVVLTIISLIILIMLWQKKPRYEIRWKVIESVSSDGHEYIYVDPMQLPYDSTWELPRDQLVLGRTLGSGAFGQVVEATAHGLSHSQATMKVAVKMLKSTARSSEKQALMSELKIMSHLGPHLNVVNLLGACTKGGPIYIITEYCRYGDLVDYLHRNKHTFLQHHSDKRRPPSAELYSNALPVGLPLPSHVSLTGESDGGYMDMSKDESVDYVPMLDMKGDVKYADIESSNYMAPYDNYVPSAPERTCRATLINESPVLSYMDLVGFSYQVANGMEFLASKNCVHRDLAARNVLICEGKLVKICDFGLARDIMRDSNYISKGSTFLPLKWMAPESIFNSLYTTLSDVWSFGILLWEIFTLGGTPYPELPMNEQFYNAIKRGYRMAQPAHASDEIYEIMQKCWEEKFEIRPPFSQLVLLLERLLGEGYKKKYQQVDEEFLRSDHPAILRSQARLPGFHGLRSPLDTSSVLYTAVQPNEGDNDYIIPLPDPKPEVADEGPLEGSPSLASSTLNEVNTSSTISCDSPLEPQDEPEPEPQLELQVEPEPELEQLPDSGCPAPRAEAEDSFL
T1 sequence (P10721 552-976 limits assumed): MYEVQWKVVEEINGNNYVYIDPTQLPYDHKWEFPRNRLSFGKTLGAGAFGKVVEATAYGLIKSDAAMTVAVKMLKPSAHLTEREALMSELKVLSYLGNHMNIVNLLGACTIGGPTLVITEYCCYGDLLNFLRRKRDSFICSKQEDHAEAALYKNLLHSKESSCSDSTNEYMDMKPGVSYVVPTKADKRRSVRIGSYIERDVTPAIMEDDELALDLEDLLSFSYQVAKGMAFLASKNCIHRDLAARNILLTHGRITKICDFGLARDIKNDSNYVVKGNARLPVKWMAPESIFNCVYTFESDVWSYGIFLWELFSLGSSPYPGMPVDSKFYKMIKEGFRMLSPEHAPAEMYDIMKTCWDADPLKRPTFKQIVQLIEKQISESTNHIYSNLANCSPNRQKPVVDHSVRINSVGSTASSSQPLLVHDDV

In the case of `Cc1cc(C(=O)Nc2cccc([C@H](C)Nc3cncc(Cl)n3)c2)ccn1` [Compound 83], the IC50 (in test [1]; on PDGFR β tyrosine kinase; at FLT-3 tyrosine kinase) was below 1000 nM each time.

Consider `Cc1cccc(C(=O)Nc2cccc([C@H](C)Nc3cncc(-c4ccc(O)nc4)n3)c2)c1` [Compound 90], for which the IC50 is below 1000 nM in test [1], below 1000 nM at PDGFR β tyrosine kinase, below 10000 nM at FLT-3 tyrosine kinase and below 100 nM in test [2].

On to `COc1cc(-c2cncc(NC(C)c3cccc(NC(=O)c4cccnc4)c3)n2)ccc1O` (stereo not drawn) [Compound 1], for which the IC50 in test [1] was below 100 nM; at PDGFR β tyrosine kinase, below 1000 nM; on FLT-3 tyrosine kinase, above 10000 nM.

With `Cc1ccnc(C(=O)Nc2cccc([C@H](C)Nc3cncc(Cl)n3)c2)c1` [Compound 82], the IC50 in test [1] is below 1000 nM; against PDGFR β tyrosine kinase, below 1000 nM; on FLT-3 tyrosine kinase, above 10000 nM; in test [2], below 100 nM.

As for `Cc1cncc(C(=O)Nc2cccc([C@H](C)Nc3cncc(Br)c3)c2)c1` [Compound 62], the IC50 is below 100 nM against KDR protein kinase; below 1000 nM in the test with mNFS-60; below 100 nM in test [1]; below 100 nM on PDGFR β tyrosine kinase; above 10000 nM in the test on Baf3-WT.

Regarding `Cc1cncc(C(=O)Nc2cccc([C@H](C)Nc3cncc(Cl)n3)c2)c1` [Compound 42, N-(3-{(1S)-1-[(6-chloropyrazin-2-yl)amino]ethyl}phenyl)-5-methylnicotinamide], the IC50 is below 100 nM in test [1], below 1000 nM against PDGFR β tyrosine kinase and above 10000 nM on FLT-3 tyrosine kinase.

As for `Cc1ccc(C(=O)Nc2cccc([C@H](C)Nc3cncc(Cl)n3)c2)cc1` [Compound 93], the IC50 is below 1000 nM in test [1], below 1000 nM at PDGFR β tyrosine kinase and above 10000 nM on FLT-3 tyrosine kinase.

`Cc1cncc(C(=O)Nc2cccc([C@H](C)Nc3cncc(-c4ccc(N5CCOCC5)nc4)n3)c2)c1` [Compound 79]: the IC50 in test [1] was below 100 nM; at PDGFR β tyrosine kinase, below 1000 nM; on FLT-3 tyrosine kinase it was above 10000 nM; in test [2], below 100 nM.

Regarding `COc1cc(-c2cncc(N[C@@H](C)c3cccc(NC(=O)c4cccc(C)c4)c3)n2)ccc1O` [Compound 76], the IC50 in test [1] was below 100 nM; against PDGFR β tyrosine kinase, below 1000 nM; at FLT-3 tyrosine kinase it was below 10000 nM; in test [2] it was below 100 nM.

Regarding `COc1cc(-c2cncc(N[C@@H](C)c3cccc(NC(=O)c4cncc(C)c4)c3)n2)ccc1O` [Compound 28], the IC50 in test [1] is below 100 nM; on PDGFR β tyrosine kinase, below 100 nM; at FLT-3 tyrosine kinase it was below 10000 nM; in test [2], below 100 nM.

`COc1cc(-c2cncc(N[C@@H](C)c3cccc(NC(=O)c4cncc(C)c4)c3)n2)ccc1N` [Compound 29]: the IC50 is below 100 nM in test [1], below 100 nM on PDGFR β tyrosine kinase, below 10000 nM at FLT-3 tyrosine kinase and below 100 nM in test [2].

For the compound `COc1cccc(-c2cncc(N[C@@H](C)c3cccc(NC(=O)c4cccc(C)c4)c3)n2)c1` [Compound 100], the IC50 at KDR protein kinase is below 100 nM; in the test with mNFS-60 it was below 200 nM; in test [1], below 1000 nM; at PDGFR β tyrosine kinase, below 100 nM; in the test with Baf3-WT it was above 10000 nM; in test [2], below 100 nM.

Turning to `COc1cc(-c2cncc(N[C@@H](C)c3cccc(NC(=O)c4cccnc4)c3)n2)ccc1N` [Compound 7], the IC50 in test [1] was below 100 nM; on PDGFR β tyrosine kinase, below 100 nM; at FLT-3 tyrosine kinase it was below 10000 nM; in test [2], below 100 nM.

`COc1cc(-c2cncc(N[C@@H](C)c3cccc(NC(=O)c4ccc(C)nc4)c3)n2)ccc1N` [Compound 38]: the IC50 was below 100 nM in test [1], below 10000 nM on FLT-3 tyrosine kinase and below 100 nM in test [2].

For `Cc1cncc(C(=O)Nc2cccc([C@H](C)Nc3cncc(-c4ccc(N5CCOCC5)cc4)n3)c2)c1` [Compound 65], the IC50 is below 100 nM against KDR protein kinase; below 200 nM with mNFS-60; below 100 nM in test [1]; below 100 nM at PDGFR β tyrosine kinase; above 10000 nM with Baf3-WT; below 100 nM in test [2].
